# Laboratory results from patent publication US6737383B1, “Herbicidal oxadiazolidines” (priority 1999, dated 2004).
# Tests used:
# [1] = tested on: bedstraw; test: Test B pre/postemergence bedstraw; assay type: in vivo, Galium aparine
# How it was run: (§1)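 Test chemicals in a non-phytotoxic solvent mixture with surfactant were sprayed preemergence onto planted seeds and postemergence onto plants 2 to 18 cm tall (1- to 4-leaf stage). After twelve to sixteen days in a greenhouse, injury was visually rated against untreated controls from 0 (no effect) to 10 (complete control).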
# [2] = tested on: blackgrass; test: Test B pre/postemergence blackgrass; assay type: in vivo, Alopecurus myosuroides
# How it was run: as §1
# [3] = tested on: surinam grass; test: Test B pre/postemergence surinam grass; assay type: in vivo, Brachiaria decumbens
# How it was run: as §1
# [4] = tested on: cocklebur; test: Test B pre/postemergence cocklebur; assay type: in vivo, Xanthium strumarium
# How it was run: as §1
# [5] = tested on: corn; test: Test B pre/postemergence corn; assay type: in vivo, Zea mays
# How it was run: as §1
# [6] = tested on: crabgrass; test: Test B pre/postemergence crabgrass; assay type: in vivo, Digitaria sanguinalis
# How it was run: as §1
# [7] = tested on: giant foxtail; test: Test B pre/postemergence giant foxtail; assay type: in vivo, Setaria faberii
# How it was run: as §1
# [8] = tested on: morningglory; test: Test B pre/postemergence morningglory; assay type: in vivo, Ipomoea hederacea
# How it was run: as §1
# [9] = tested on: pigweed; test: Test B pre/postemergence pigweed; assay type: in vivo, Amaranthus retroflexus
# How it was run: as §1
# [10] = tested on: soybean; test: Test B pre/postemergence soybean; assay type: in vivo, Glycine max
# How it was run: as §1
# [11] = tested on: sugar beet; test: Test B pre/postemergence sugar beet; assay type: in vivo, Beta vulgaris
# How it was run: as §1
# [12] = tested on: wild oat; test: Test B pre/postemergence wild oat; assay type: in vivo, Avena fatua
# How it was run: as §1
# [13] = tested on: purple nutsedge; test: Test B pre/postemergence purple nutsedge; assay type: in vivo, Cyperus rotundus
# How it was run: as §1
# [14] = tested on: rice; test: Test B flood test rice; assay type: in vivo, Oryza sativa
# How it was run: (§2)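 Plants were grown to the 2-leaf stage before treatment with test chemical, then held in a greenhouse for twelve to sixteen days. Injury was visually rated against untreated controls on a 0–10 scale, where 0 is no effect and 10 is complete control.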
# [15] = tested on: smallflower flatsedge; test: Test B flood test smallflower flatsedge; assay type: in vivo, Cyperus difformis
# How it was run: as §2
# [16] = tested on: duck salad; test: Test B flood test duck salad; assay type: in vivo, Heteranthera limosa
# How it was run: as §2
# [17] = Preemergence, Rate 62 g/ha, scale of 0 to 10 where 0 is no effect and 10 is complete control
# [18] = Preemergence, Rate 250 g/ha, scale of 0 to 10 where 0 is no effect and 10 is complete control
# [19] = Rate 62 g/ha, Postemergence, scale of 0 to 10 where 0 is no effect and 10 is complete control
# [20] = Rate 125 g/ha, Postemergence, scale of 0 to 10 where 0 is no effect and 10 is complete control
# [21] = Rate 125 g/ha, Preemergence, scale of 0 to 10 where 0 is no effect and 10 is complete control
# [22] = Rate 250 g/ha, Postemergence, scale of 0 to 10 where 0 is no effect and 10 is complete control
# [23] = Rate 500 g/ha, Postemergence, scale 0 to 10, 0 no effect, 10 complete control
# [24] = Preemergence, Rate 500 g/ha, scale of 0 to 10 where 0 is no effect and 10 is complete control
# [25] = Rate 62 g/ha, headed Pre-emergence (flood test species), scale 0 to 10 (0 no effect, 10 complete control)
# [26] = Rate 125 g/ha, Pre-emergence, flood test species, scale 0 to 10 where 0 is no effect and 10 is complete control
# [27] = Rate 250 g/ha, Pre-emergence, flood-test species, scale 0 to 10, 0 is no effect, 10 is complete control
# [28] = Rate 500 g/ha, Pre-emergence, flood test species, scale 0 to 10 (0 no effect, 10 complete control)
smiles,measurement,setting,value
Cc1cccc(C)c1-n1c(=O)on(C(=O)N(C(C)C)C2C=CCCC2)c1=O (stereo not shown) [Compound 273],Bedstraw plant response rating,[1]; [17],0
same,Bedstraw plant response rating,[1]; [18],0
same,Bedstraw plant response rating,[1]; [19],0
same,Bedstraw plant response rating,[1]; [20],0
same,Bedstraw plant response rating,[1]; [21],0
same,"Plant response rating, Bedstraw",[1]; [22],0
same,Bedstraw plant response rating,[1]; [23],0
same,Blackgrass plant response rating,[2]; [17],0
same,"Plant response rating, Blackgrass",[2]; [24],0
same,Blackgrass plant response rating,[2]; [19],0
same,Blackgrass plant response rating,[2]; [20],1
same,Blackgrass plant response rating,[2]; [21],0
same,"Plant response rating, Blackgrass",[2]; [22],2
same,Blackgrass plant response rating,[2]; [23],4
same,B. signalgrass plant response rating,[3]; [17],0
same,B. signalgrass plant response rating,[3]; [18],2
same,"Plant response rating, B. signalgrass",[3]; [24],3
same,B. signalgrass plant response rating,[3]; [19],0
same,B. signalgrass plant response rating,[3]; [20],0
same,B. signalgrass plant response rating,[3]; [21],0
same,"Plant response rating, B. signalgrass",[3]; [22],0
same,B. signalgrass plant response rating,[3]; [23],0
same,Cocklebur plant response rating,[4]; [17],0
same,Cocklebur plant response rating,[4]; [18],0
same,"Plant response rating, Cocklebur",[4]; [24],0
same,Cocklebur plant response rating,[4]; [19],0
same,Cocklebur plant response rating,[4]; [20],0
same,Cocklebur plant response rating,[4]; [21],0
same,"Plant response rating, Cocklebur",[4]; [22],0
same,Cocklebur plant response rating,[4]; [23],0
same,Corn plant response rating,[5]; [17],0
same,Corn plant response rating,[5]; [18],0
same,"Plant response rating, Corn",[5]; [24],0
same,Corn plant response rating,[5]; [19],0
same,Corn plant response rating,[5]; [20],0
same,Corn plant response rating,[5]; [21],0
same,"Plant response rating, Corn",[5]; [22],0
same,Corn plant response rating,[5]; [23],0
same,Crabgrass plant response rating,[6]; [17],2
same,Crabgrass plant response rating,[6]; [18],6
same,"Plant response rating, Crabgrass",[6]; [24],9
same,Crabgrass plant response rating,[6]; [20],0
same,Crabgrass plant response rating,[6]; [21],6
same,"Plant response rating, Crabgrass",[6]; [22],1
same,Crabgrass plant response rating,[6]; [23],3
same,Giant foxtail plant response rating,[7]; [17],7
same,Giant foxtail plant response rating,[7]; [18],8
same,"Plant response rating, Giant foxtail",[7]; [24],9
same,Giant foxtail plant response rating,[7]; [20],0
same,Giant foxtail plant response rating,[7]; [21],8
same,"Plant response rating, Giant foxtail",[7]; [22],0
same,Giant foxtail plant response rating,[7]; [23],2
same,Morningglory plant response rating,[8]; [17],0
same,Morningglory plant response rating,[8]; [18],0
same,"Plant response rating, Morningglory",[8]; [24],0
same,Morningglory plant response rating,[8]; [20],0
same,Morningglory plant response rating,[8]; [21],0
same,"Plant response rating, Morningglory",[8]; [22],2
same,Morningglory plant response rating,[8]; [23],3
same,Redroot pigweed plant response rating,[9]; [17],0
same,Redroot pigweed plant response rating,[9]; [18],0
same,"Plant response rating, Redroot pigweed",[9]; [24],0
same,Redroot pigweed plant response rating,[9]; [20],0
same,Redroot pigweed plant response rating,[9]; [21],0
same,"Plant response rating, Redroot pigweed",[9]; [22],2
same,Redroot pigweed plant response rating,[9]; [23],4
same,Soybean plant response rating,[10]; [17],0
same,Soybean plant response rating,[10]; [18],0
same,"Plant response rating, Soybean",[10]; [24],0
same,Soybean plant response rating,[10]; [20],3
same,Soybean plant response rating,[10]; [21],0
same,"Plant response rating, Soybean",[10]; [22],3
same,Soybean plant response rating,[10]; [23],4
same,Sugarbeets plant response rating,[11]; [17],0
same,Sugarbeets plant response rating,[11]; [18],6
same,"Plant response rating, Sugarbeets",[11]; [24],7
same,Sugarbeets plant response rating,[11]; [20],0
same,Sugarbeets plant response rating,[11]; [21],0
same,"Plant response rating, Sugarbeets",[11]; [22],0
same,Sugarbeets plant response rating,[11]; [23],0
same,Wild oats plant response rating,[12]; [17],0
same,Wild oats plant response rating,[12]; [18],0
same,"Plant response rating, Wild oats",[12]; [24],3
same,Wild oats plant response rating,[12]; [20],0
same,"Plant response rating, Wild oats",[12]; [22],0
same,Wild oats plant response rating,[12]; [23],0
same,Nutsedge plant response rating,[13]; [18],0
same,"Plant response rating, Nutsedge",[13]; [24],0
same,Nutsedge plant response rating,[13]; [20],0
same,"Plant response rating, Nutsedge",[13]; [22],0
same,Nutsedge plant response rating,[13]; [23],0
same,Rice plant response rating,[14]; [25],0
same,Rice plant response rating,[14]; [26],0
same,Rice plant response rating,[14]; [27],0
same,Rice plant response rating,[14]; [28],0
same,S. Flatsedge plant response rating,[15]; [25],0
same,S. Flatsedge plant response rating,[15]; [26],0
same,S. Flatsedge plant response rating,[15]; [27],0
same,S. Flatsedge plant response rating,[15]; [28],0
same,Ducksalad plant response rating,[16]; [25],0
same,Ducksalad plant response rating,[16]; [26],0
same,Ducksalad plant response rating,[16]; [27],0
same,Ducksalad plant response rating,[16]; [28],0
